25 compounds from ChEMBL document CHEMBL4725306, “Discovery of (3S,4S)-3-methyl-3-(4-fluorophenyl)-4-(4-(1,1,1,3,3,3-hexafluoro-2-hydroxyprop-2-yl)phenyl)pyrrolidines as novel RORγt inverse agonists” (Bioorg Med Chem Lett, 2020) can be followed below.

In series [1] the target is T1, Nuclear receptor subfamily 1 group I member 2 (Homo sapiens, UniProt O75469).
T1 sequence (O75469 whole entry): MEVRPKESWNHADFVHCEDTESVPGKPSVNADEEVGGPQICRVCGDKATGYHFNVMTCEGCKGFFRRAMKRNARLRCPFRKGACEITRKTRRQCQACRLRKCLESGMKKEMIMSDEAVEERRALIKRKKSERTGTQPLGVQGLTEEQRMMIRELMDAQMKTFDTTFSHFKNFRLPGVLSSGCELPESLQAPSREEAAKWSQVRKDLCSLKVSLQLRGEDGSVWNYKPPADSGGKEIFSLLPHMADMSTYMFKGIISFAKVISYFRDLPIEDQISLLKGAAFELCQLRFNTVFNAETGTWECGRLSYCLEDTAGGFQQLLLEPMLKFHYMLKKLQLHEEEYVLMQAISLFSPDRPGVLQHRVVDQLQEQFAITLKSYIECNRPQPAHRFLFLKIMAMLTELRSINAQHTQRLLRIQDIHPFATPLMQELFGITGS
The experiment in a line: Activation of PXR (unknown origin).

Series [2] is described as follows: Metabolic stability in mouse liver microsomes assessed as parent compound remaining incubated for 10 mins. It counts as ADME, Microsome. Particulars: read-out: Stabilty. (Microsomes from liver hold many membrane-bound enzymes, among them those of drug oxidation.)
A short description of series [3]: Metabolic stability in human liver microsomes assessed as parent compound remaining incubated for 10 mins. It counts as ADME, Microsome. Particulars: read-out: Stabilty.
The next series has as its target T2, PXR (Homo sapiens, UniProt O75469).
T2 sequence (O75469 whole entry): T1 sequence (O75469 whole entry)
Nature of the series: (§1) Activation of PXR (unknown origin) relative to rifampicin. The following applies: read-out: %max.

In series [4] the target is T3, Nuclear receptor ROR-beta (Homo sapiens, UniProt Q92753).
T3 sequence (Q92753 whole entry): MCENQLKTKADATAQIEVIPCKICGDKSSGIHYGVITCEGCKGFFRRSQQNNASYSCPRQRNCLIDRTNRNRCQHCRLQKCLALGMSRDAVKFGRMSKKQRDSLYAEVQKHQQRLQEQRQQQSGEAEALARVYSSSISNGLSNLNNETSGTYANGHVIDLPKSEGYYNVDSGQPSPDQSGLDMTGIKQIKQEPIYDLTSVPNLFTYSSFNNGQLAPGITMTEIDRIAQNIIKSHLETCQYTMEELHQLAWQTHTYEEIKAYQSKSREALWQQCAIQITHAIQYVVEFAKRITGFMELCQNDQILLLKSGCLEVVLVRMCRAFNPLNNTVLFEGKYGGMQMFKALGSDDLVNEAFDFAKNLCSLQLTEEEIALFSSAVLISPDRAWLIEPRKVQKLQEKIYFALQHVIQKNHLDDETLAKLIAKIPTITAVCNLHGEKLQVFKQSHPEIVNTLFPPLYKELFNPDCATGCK
The experiment in a line: Inverse agonist activity at ROR-beta (unknown origin) expressed in Jurkat cells by gal4 reporter assay. The series is classed as cell-based. A general note: Reporter assays use an easily measured gene product as a stand-in for the process of interest.

Series [5] deals with T4, Nuclear receptor ROR-alpha (Homo sapiens, UniProt P35398).
T4 sequence (P35398 whole entry): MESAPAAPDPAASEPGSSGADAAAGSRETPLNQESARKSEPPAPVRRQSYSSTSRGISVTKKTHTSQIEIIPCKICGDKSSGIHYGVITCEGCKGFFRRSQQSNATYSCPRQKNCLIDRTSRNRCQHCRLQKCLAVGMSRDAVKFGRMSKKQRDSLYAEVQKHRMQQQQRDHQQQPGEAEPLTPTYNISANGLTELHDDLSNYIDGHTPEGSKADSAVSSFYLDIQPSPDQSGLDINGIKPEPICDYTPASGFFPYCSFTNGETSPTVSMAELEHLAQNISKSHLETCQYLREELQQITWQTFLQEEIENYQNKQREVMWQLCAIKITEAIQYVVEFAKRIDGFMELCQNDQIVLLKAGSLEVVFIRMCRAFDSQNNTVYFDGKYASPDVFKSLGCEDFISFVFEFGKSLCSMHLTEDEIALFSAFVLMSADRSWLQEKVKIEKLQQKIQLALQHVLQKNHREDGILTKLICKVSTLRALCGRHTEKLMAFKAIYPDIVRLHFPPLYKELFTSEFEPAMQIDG
The experiment in a line: Inverse agonist activity at ROR-alpha (unknown origin) expressed in Jurkat cells by gal4 reporter assay. The series is classed as cell-based.

The target of series [6] is T5, Nuclear receptor ROR-gamma (Homo sapiens, UniProt P51449).
T5 sequence (P51449 whole entry): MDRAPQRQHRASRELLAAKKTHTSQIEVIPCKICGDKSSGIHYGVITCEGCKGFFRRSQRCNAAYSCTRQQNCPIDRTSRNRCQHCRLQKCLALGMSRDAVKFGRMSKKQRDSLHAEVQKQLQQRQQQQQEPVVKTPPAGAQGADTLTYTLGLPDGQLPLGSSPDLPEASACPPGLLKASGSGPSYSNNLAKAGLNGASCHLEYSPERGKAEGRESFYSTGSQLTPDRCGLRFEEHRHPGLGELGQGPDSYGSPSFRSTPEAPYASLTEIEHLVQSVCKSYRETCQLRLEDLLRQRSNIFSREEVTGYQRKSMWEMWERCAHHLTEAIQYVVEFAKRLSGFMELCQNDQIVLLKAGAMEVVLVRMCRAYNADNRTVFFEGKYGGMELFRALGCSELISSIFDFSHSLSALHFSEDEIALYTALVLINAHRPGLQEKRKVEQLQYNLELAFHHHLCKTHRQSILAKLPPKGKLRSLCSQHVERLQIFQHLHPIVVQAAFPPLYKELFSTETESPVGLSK
The experiment in a line: Inverse agonist activity at RORgammat (unknown origin) expressed in Jurkat cells by reporter assay. It counts as cell-based.

In series [7] the target is T1, Nuclear receptor subfamily 1 group I member 2. The series is described as §1.

The EC50 is the concentration that produces a half-maximal response. Higher therefore signals weaker potency.

Turning to `C[C@]1(c2ccc(F)cc2)CN(C(=O)C2CCN(C(=O)C(N)=O)CC2)C[C@H]1c1ccc(C(O)(C(F)(F)F)C(F)(F)F)cc1`, in series [1], the midpoint of the response, the EC50, lay at 995 nM. In addition, the remaining at 10 min turned out to be 87% in series [2] and 91% in series [3]. The Emax at PXR came to 73%.
For `CCNC(=O)N1C[C@@H](c2ccc(C(O)(C(F)(F)F)C(F)(F)F)cc2)[C@@](C)(c2ccccc2)C1` (racemic), a half-maximal response in series [1] (EC50) required 1780 nM. In addition, the Emax on PXR came to 73%.
Take `CC(=O)N1CCC(C(=O)N2C[C@@H](c3ccc(C(O)(C(F)(F)F)C(F)(F)F)cc3)[C@@](C)(c3ccc(F)cc3)C2)CC1`: a half-maximal response in series [1] (EC50) required 1080 nM. For the same compound, the remaining at 10 min in series [2] was 81%; in series [3] it was 86%. Besides, on PXR, the Emax worked out at 61%.
Regarding `C[C@]1(c2ccc(F)cc2)CN(C(=O)NCc2ccc3c(c2)OCO3)C[C@H]1c1ccc(C(O)(C(F)(F)F)C(F)(F)F)cc1`, the values for the remaining at 10 min in series [2] and in series [3] were 65% and 54%, respectively.
`CC(=O)N1CCC(C(=O)N2C[C@@H](c3ccc(C(O)(C(F)(F)F)C(F)(F)F)cc3)[C@@](C)(c3ccccc3)C2)CC1`: the values for the remaining at 10 min in series [2] and in series [3] were 75% and 89%, respectively.
`C[C@@]1(c2ccc(C(O)(C(F)(F)F)C(F)(F)F)cc2)CN(C(=O)NCc2ccccc2)C[C@@H]1c1ccccc1` (racemic) gave an EC50 in series [1] of 60 nM. In addition, on PXR, the Emax turned out to be 84%.
As to `COc1ccc(CNC(=O)N2C[C@@H](c3ccc(C(O)(C(F)(F)F)C(F)(F)F)cc3)[C@@](C)(c3ccc(F)cc3)C2)cc1`, the EC50 in series [1] amounted to 189 nM. In addition, the remaining at 10 min in series [2] turned out to be 67%; in series [3], 68%. For the same compound, at PXR, the Emax came to 84%.
With `C[C@]1(c2ccc(F)cc2)CN(C(=O)C2CCN(S(C)(=O)=O)CC2)C[C@H]1c1ccc(C(O)(C(F)(F)F)C(F)(F)F)cc1`, in series [1], the EC50 amounted to 151 nM. Also, the figures for the remaining at 10 min in series [2] and in series [3] were 80% and 90%, respectively. For the same compound, the Emax on PXR amounted to 78%.
`COCC(=O)N1CCC(C(=O)N2C[C@@H](c3ccc(C(O)(C(F)(F)F)C(F)(F)F)cc3)[C@@](C)(c3ccc(F)cc3)C2)CC1` registered an EC50 in series [1] of 1550 nM. Further, the remaining at 10 min was found to be 49% in series [2] and 54% in series [3]. Besides, the Emax at PXR is 52%.
For `C[C@]1(c2ccc(F)cc2)CN(C(=O)NCc2ccncc2)C[C@H]1c1ccc(C(O)(C(F)(F)F)C(F)(F)F)cc1`, the remaining at 10 min in series [2] stood at 1%; in series [3], 11%.
For the compound `CC(=O)N1CCC(C(=O)N2C[C@H](c3ccc(C(O)(C(F)(F)F)C(F)(F)F)cc3)[C@](C)(c3ccccc3)C2)CC1`, the results for the remaining at 10 min in series [2] and in series [3] were 79% and 74%, respectively.
In series [1], `C[C@]1(c2ccc(F)cc2)CN(C(=O)NCc2ccccc2)C[C@H]1c1ccc(C(O)(C(F)(F)F)C(F)(F)F)cc1` (racemic) gave an EC50 of 474 nM. For the same compound, at PXR, the Emax is 79%.
Compound `CCS(=O)(=O)c1ccc(CNC(=O)N2C[C@@H](c3ccc(C(O)(C(F)(F)F)C(F)(F)F)cc3)[C@@](C)(c3ccc(F)cc3)C2)cc1` registered an EC50 in series [1] of 5 nM. In addition, the remaining at 10 min was 51% in series [2] and 32% in series [3]. Also, the Emax at PXR is 100%.
On to `C[C@]1(c2ccccc2)CN(C(=O)c2ccccc2)C[C@H]1c1ccc(C(O)(C(F)(F)F)C(F)(F)F)cc1` (racemic), for which a half-maximal effect in series [1] (EC50) was put at 740 nM. For the same compound, the Emax on PXR was 93%.
With `C[C@]1(c2ccc(F)cc2)CN(C(=O)C2CCN(C(=O)CO)CC2)C[C@H]1c1ccc(C(O)(C(F)(F)F)C(F)(F)F)cc1`, the remaining at 10 min was found to be 82% in series [2] and 86% in series [3].
In series [1], `C[C@@]1(c2ccc(F)cc2)CN(C(=O)NCc2ccccc2)C[C@@H]1c1ccc(C(O)(C(F)(F)F)C(F)(F)F)cc1` showed an EC50 of 472 nM. Also, the remaining at 10 min in series [2] amounted to 17%; in series [3], 58%. For the same compound, the Emax at PXR is 80%.
For the compound `C[C@]1(c2ccc(F)cc2)CN(C(=O)C2CCN(C(=O)CC#N)CC2)C[C@H]1c1ccc(C(O)(C(F)(F)F)C(F)(F)F)cc1`, the EC50 in series [1] is 495 nM; in series [4], over 40000 nM; in series [5] it was over 40000 nM. Besides, the remaining at 10 min is 79% in series [2] and 80% in series [3]. The Emax at PXR turned out to be 46%.
Consider `C[C@]1(c2ccc(F)cc2)CN(C(=O)C2CCN(C(N)=O)CC2)C[C@H]1c1ccc(C(O)(C(F)(F)F)C(F)(F)F)cc1`, for which a half-maximal response in series [1] (EC50) required 1060 nM. For the same compound, the figures for the remaining at 10 min in series [2] and in series [3] were 100% and 97%, respectively. Also, the Emax at PXR worked out at 72%.
`C[C@]1(c2ccccc2)CN(S(C)(=O)=O)C[C@H]1c1ccc(C(O)(C(F)(F)F)C(F)(F)F)cc1` (racemic) gave an EC50 in series [1] of 257 nM. The Emax on PXR is 110%.
The like results for `CC(=O)N1CCC(C(=O)N2C[C@@H](c3ccc(C(F)(C(F)(F)F)C(F)(F)F)cc3)[C@@](C)(c3ccc(F)cc3)C2)CC1` were, in that order, over 50000 nM and 15%.
In the case of `CC(=O)N1C[C@@H](c2ccc(C(O)(C(F)(F)F)C(F)(F)F)cc2)[C@@](C)(c2ccccc2)C1` (racemic), in series [1], the EC50 is 361 nM. Moreover, the Emax on PXR was 110%.
Regarding `C[C@]1(c2ccccc2)CNC[C@H]1c1ccc(C(O)(C(F)(F)F)C(F)(F)F)cc1` (racemic), the EC50 in series [1] was 1250 nM; in series [6], 7910 nM. Further, the Emax at PXR was determined as 39%.
As for `C[C@]1(c2ccc(F)cc2)CN(C(=O)NCc2ccc(C#N)cc2)C[C@H]1c1ccc(C(O)(C(F)(F)F)C(F)(F)F)cc1`, the EC50 in series [6] amounted to 74 nM. The remaining at 10 min in series [2] amounted to 51%; in series [3], 76%.
`C[C@]1(c2ccccc2)CN(CC(N)=O)C[C@H]1c1ccc(C(O)(C(F)(F)F)C(F)(F)F)cc1` (racemic) yielded an EC50 in series [1] of 276 nM. In addition, on PXR, the Emax turned out to be 96%.
Consider `C[C@]1(c2ccc(F)cc2)CN(C(=O)NCc2ccccc2)C[C@H]1c1ccc(C(O)(C(F)(F)F)C(F)(F)F)cc1`, for which, in series [1], the response was half-maximal at 559 nM (EC50). In addition, the remaining at 10 min worked out at 67% in series [2] and 73% in series [3]. Also, the “%max” value in series [7] is given as 98%.
